Results from paper PMC5361737, “Potent and Selective KDM5 Inhibitor Stops Cellular Demethylation of H3K4me3 at Transcription Start Sites and Proliferation of MM1S Myeloma Cells” (Cell Chemical Biology, 2017).

Columns and labels:
V1a (h) = V1a (h) (Homo sapiens, UniProt P37288); test: Cerep Express Panel, agonist radioligand; type: binding; conditions: read-out: % Inhibition of reference (10 µM)
PAMPA = type: in vitro ADME
alpha 1 (non-selective) = test: Cerep Express Panel, antagonist radioligand; type: binding
5-HT5a (h) = 5-HT5a (h) (Homo sapiens, UniProt P47898); test: Cerep Express Panel, agonist radioligand; type: binding; conditions: read-out: % Inhibition of reference (10 µM)
A3 (h) = A3 (h) (Homo sapiens, UniProt P0DMS8); test: Cerep Express Panel, agonist radioligand; type: binding; conditions: read-out: % Inhibition of reference (10 µM)
5-HT2A (h) = 5-HT2A (h) (Homo sapiens, UniProt P28223); test: Cerep Express Panel, antagonist radioligand; type: binding; conditions: read-out: % Inhibition of reference (10 µM)
KDM2A = target: T1, KDM2A (Homo sapiens, UniProt Q9Y2K7); test: 2-Oxoglutarate oxygenase assay panel, AlphaScreen assay; type: biochemical; conditions: refers to Table S1
T1 sequence (Q9Y2K7 1-1162): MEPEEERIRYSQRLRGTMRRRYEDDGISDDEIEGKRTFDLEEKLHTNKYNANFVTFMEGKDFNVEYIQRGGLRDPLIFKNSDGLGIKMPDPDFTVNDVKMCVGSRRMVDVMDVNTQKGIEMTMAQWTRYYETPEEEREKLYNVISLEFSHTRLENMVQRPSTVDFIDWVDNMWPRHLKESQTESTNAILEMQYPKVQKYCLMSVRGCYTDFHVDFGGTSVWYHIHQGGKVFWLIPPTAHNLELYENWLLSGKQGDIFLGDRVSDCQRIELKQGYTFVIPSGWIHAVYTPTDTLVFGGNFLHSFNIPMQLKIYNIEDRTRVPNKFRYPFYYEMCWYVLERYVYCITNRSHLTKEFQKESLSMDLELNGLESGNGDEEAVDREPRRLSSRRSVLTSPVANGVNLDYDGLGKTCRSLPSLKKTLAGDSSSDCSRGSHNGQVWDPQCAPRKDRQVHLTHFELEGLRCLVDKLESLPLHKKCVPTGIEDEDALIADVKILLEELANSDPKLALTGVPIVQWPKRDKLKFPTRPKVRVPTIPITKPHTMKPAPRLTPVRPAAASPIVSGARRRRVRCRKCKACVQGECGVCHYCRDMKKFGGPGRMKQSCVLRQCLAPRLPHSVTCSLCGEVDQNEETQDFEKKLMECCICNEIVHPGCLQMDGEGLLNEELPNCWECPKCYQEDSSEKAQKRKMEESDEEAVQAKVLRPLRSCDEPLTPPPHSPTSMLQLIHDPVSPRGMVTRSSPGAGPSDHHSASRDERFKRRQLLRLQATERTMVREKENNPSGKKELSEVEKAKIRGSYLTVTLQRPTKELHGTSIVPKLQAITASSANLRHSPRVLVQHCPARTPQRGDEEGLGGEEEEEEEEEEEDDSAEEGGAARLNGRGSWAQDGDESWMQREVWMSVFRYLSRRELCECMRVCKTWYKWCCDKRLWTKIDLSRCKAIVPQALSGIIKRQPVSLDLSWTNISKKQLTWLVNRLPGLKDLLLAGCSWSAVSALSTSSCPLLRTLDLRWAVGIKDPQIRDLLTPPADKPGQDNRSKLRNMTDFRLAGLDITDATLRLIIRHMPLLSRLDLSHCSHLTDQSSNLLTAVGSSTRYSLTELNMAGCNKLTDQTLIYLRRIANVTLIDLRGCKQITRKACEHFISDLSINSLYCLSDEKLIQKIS

delta 2 (DOP) (h) = delta 2 (DOP) (h) (Homo sapiens, UniProt P41143); test: Cerep Express Panel, agonist radioligand; type: binding; conditions: read-out: % Inhibition of reference (10 µM)
mu (MOP) (h) = mu (MOP) (h) (Homo sapiens, UniProt P35372); test: Cerep Express Panel, agonist radioligand; type: binding; conditions: read-out: % Inhibition of reference (10 µM)
Caco-2 cells = test: Caco-2 cell permeability assay; type: in vitro ADME
Procedure: The higher concentration (60 μM) required for cellular activity could be ascribed to different reasons: first to the partial competition with the co-factor 2-OG, the physiological intracellular concentrations of which could be up to […] levels ([Thirstrup et al., 2011]); second to an estimated moderate-to-low cell permeability of KDOAM25. […] Together these effects could explain the partial loss of potency observed in the IF cell assay.

NO66 = NO66 (Homo sapiens, UniProt Q9H6W3); test: 2-Oxoglutarate oxygenase assay panel, RapidFire MS assay; type: biochemical; conditions: read-out: pIC50 NO66 (converted)
M2 (h) = M2 (h) (Homo sapiens, UniProt P08172); test: Cerep Express Panel, antagonist radioligand; type: binding; conditions: read-out: % Inhibition of reference (10 µM)
Chain of M2 (h) (P08172 whole entry): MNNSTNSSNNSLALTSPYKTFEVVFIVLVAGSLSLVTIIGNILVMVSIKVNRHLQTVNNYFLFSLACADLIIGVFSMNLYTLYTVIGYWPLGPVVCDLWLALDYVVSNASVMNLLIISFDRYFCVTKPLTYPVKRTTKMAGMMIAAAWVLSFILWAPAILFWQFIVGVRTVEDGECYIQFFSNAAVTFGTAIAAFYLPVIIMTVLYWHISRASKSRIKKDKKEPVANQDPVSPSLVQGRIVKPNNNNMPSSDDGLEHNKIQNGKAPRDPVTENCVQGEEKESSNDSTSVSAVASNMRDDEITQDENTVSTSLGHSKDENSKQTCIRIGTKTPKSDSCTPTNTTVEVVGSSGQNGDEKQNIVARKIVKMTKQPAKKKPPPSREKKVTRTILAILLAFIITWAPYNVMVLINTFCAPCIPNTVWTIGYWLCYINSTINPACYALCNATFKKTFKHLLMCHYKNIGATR

Chain of delta 2 (DOP) (h) (P41143 whole entry): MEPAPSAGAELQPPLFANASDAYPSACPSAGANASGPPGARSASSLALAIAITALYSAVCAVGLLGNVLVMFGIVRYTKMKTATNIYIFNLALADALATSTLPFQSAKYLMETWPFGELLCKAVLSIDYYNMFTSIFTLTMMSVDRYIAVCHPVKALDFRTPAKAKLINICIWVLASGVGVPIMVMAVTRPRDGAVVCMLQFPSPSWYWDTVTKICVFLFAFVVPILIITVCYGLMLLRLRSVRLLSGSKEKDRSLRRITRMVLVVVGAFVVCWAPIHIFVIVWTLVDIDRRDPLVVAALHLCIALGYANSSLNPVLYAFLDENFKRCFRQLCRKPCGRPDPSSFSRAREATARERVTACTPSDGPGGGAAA
Chain of V1a (h) (P37288 whole entry): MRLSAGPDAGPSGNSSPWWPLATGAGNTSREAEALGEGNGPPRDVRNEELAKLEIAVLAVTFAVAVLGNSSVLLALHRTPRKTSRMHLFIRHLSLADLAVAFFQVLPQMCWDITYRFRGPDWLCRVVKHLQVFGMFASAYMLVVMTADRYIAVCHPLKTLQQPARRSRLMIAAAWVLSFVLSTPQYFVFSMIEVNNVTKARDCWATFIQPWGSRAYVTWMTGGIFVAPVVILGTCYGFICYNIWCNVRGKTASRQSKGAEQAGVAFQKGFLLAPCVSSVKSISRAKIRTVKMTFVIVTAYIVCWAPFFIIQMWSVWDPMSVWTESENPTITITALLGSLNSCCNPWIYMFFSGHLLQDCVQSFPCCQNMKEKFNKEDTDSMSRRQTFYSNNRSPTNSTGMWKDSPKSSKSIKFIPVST
Chain of NO66 (Q9H6W3 whole entry, species assumed): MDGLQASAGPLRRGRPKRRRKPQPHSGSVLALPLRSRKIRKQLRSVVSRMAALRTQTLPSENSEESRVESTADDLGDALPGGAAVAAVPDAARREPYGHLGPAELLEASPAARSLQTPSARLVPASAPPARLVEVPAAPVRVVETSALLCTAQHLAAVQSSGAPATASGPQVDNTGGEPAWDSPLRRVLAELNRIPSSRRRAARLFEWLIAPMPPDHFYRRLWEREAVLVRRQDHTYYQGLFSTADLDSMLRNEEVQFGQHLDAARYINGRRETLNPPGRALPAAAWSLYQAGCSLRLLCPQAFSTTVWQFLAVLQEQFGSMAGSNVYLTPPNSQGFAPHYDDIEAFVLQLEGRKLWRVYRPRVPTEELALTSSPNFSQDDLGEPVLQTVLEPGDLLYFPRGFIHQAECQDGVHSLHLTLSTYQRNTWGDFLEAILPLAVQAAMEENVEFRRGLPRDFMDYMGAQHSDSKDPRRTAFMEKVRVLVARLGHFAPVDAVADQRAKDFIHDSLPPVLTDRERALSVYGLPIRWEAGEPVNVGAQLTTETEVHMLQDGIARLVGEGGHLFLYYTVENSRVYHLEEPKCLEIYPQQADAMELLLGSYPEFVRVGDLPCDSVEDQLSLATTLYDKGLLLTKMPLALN
Chain of 5-HT5a (h) (P47898 whole entry): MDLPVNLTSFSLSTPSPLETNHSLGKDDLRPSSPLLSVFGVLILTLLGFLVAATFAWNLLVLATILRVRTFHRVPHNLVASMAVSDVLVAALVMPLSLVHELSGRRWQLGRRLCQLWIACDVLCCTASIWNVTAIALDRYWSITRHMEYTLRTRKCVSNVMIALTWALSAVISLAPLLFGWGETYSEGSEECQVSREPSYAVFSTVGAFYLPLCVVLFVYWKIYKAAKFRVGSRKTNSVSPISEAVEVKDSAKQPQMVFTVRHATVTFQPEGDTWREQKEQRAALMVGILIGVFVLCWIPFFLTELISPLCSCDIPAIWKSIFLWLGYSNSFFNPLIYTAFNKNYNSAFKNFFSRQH
Chain of A3 (h) (P0DMS8 whole entry): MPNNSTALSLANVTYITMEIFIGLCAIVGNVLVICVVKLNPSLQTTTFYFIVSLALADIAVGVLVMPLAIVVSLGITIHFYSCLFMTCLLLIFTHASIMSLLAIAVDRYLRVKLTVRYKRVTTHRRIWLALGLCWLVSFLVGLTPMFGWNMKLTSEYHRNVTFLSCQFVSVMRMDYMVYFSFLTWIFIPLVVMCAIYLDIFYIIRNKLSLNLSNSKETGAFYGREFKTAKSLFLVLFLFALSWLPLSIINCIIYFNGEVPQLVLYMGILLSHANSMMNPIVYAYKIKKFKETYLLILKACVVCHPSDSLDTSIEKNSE
Chain of mu (MOP) (h) (P35372 whole entry): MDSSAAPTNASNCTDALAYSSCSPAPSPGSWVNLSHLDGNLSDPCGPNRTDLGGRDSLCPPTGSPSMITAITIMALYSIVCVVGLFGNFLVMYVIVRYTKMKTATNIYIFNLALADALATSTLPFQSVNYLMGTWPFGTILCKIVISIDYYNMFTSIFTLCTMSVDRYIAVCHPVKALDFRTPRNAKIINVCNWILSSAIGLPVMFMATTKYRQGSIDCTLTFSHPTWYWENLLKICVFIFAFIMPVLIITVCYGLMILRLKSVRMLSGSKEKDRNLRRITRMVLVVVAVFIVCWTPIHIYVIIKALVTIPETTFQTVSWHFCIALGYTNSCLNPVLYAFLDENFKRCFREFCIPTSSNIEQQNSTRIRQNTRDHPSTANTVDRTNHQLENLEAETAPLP
Chain of 5-HT2A (h) (P28223 whole entry): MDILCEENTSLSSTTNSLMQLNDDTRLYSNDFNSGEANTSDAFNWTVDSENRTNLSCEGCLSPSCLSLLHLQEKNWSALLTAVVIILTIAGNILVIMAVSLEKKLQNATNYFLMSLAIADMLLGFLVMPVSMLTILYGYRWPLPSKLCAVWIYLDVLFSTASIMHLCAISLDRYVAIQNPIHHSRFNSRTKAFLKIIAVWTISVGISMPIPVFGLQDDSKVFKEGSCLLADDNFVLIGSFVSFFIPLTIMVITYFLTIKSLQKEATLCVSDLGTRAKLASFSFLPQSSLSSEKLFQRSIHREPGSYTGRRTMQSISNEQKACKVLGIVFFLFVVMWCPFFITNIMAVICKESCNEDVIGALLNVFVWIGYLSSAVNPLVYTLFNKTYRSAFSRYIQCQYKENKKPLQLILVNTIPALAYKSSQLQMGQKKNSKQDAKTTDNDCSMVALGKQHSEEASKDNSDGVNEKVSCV

In the case of `CCN(CCN(C)C)C(=O)CNCc1cc(C(N)=O)ccn1` [KDOAM-25], the inhibition at 10 µM (V1a (h)) is reported as -4%, the “PAMPA pH 5” value (PAMPA; pH 5) is reported as under 0.3 and the “PAMPA pH 6.5” value (PAMPA; pH 6.5) is reported as under 0.23. For the same compound, the “PAMPA pH 7.4” value (PAMPA; pH 7.4) was under 0.23, the “% Inhibition of reference (10 µM)” value (alpha 1 (non-selective)) was -15% and the inhibition at 10 µM (5-HT5a (h)) was -24%. For the same compound, the inhibition at 10 µM (A3 (h)) was -6%, the inhibition at 10 µM (5-HT2A (h)) was -6% and the “KDM2A IC50” value (KDM2A) was 4.4 µM. For the same compound, the inhibition at 10 µM (delta 2 (DOP) (h)) was 2%, the inhibition at 10 µM (mu (MOP) (h)) was -2% and the “Caco-2 A-B” value (Caco-2 cells) was under 0.76. The “Caco-2 B-A” value (Caco-2 cells) was under 0.76, the “Caco-2 permeability, in words” value (Caco-2 cells; passive permeation) was “low permeability region” and the IC50 (NO66) was over 100 µM. For the same compound, the inhibition at 10 µM (M2 (h)) was -3%.
